Values quoted from earlier work as cited in US20100239682A1, “COLONIC DELIVERY OF ANTIMICROBIAL AGENTS” (priority 2007, published 2010).

Assays:
Enterobacteriaceae = conditions: human volunteers, oral, different dosages
[1] = human volunteers, high doses

## colistin [Colimycin]
Enterobacteriaceae
  effectiveness at achieving selective decontamination: only high dosages of Colimycin were effective
[1]
  tolerance at the gastric level: very poorly tolerated
